We go through 26 compounds from patent US9085598B2, “Compounds targeting the cell invasion protein complex, their pharmaceutical compositions and methods of use thereof” (THE ROYAL INSTITUTE FOR THE ADVANCEMENT OF LEARNING/MCGILL …, priority 2011, dated 2015).

Like-named read-outs stand apart in the source and are kept apart here.

Assay [1] concerns MDA-231 cells. As to the kind of experiment: Inhibition of cell proliferation, MTT metabolic assay. Conditions: 96 hours continuous treatment, read-out: MDA231- IC50. Format: cell-based. Here is the method: Exponentially growing DU145 or MDA-231 cells (1×10^3 cells) were seeded in 96-well plates. The final concentration of DMSO was less than 0.05%. After 96 hours, the cell survival was evaluated using 3-(4,5-dimethylthiazo-2-yl)-2,5-diphenyltetrazolium bromide (MTT) metabolic assay.
(In general: Tetrazolium assays rely on reduction of a dye to a coloured formazan, in cell work by metabolically active cells.)

Assay [2] has as its system DU145 cells. The assay is described as above. Format: cell-based. Here is the method: Exponentially growing DU145 or MDA-231 cells (1×10^3 cells) were seeded in 96-well plates. The final concentration of DMSO was less than 0.05%. After 96 hours, the cell survival was evaluated using 3-(4,5-dimethylthiazo-2-yl)-2,5-diphenyltetrazolium bromide (MTT) metabolic assay. The inhibitory activity (IC50) of the compounds on MDA-231 and DU145 cell proliferation was determined. The results are presented in Table 1 for a representative number of compounds.

For assay [3], the target named is T1, FAK (Homo sapiens, UniProt Q05397).
T1 construct: Human recombinant full-length kinases were incubated in kinase buffer
T1 sequence (Q05397 whole entry): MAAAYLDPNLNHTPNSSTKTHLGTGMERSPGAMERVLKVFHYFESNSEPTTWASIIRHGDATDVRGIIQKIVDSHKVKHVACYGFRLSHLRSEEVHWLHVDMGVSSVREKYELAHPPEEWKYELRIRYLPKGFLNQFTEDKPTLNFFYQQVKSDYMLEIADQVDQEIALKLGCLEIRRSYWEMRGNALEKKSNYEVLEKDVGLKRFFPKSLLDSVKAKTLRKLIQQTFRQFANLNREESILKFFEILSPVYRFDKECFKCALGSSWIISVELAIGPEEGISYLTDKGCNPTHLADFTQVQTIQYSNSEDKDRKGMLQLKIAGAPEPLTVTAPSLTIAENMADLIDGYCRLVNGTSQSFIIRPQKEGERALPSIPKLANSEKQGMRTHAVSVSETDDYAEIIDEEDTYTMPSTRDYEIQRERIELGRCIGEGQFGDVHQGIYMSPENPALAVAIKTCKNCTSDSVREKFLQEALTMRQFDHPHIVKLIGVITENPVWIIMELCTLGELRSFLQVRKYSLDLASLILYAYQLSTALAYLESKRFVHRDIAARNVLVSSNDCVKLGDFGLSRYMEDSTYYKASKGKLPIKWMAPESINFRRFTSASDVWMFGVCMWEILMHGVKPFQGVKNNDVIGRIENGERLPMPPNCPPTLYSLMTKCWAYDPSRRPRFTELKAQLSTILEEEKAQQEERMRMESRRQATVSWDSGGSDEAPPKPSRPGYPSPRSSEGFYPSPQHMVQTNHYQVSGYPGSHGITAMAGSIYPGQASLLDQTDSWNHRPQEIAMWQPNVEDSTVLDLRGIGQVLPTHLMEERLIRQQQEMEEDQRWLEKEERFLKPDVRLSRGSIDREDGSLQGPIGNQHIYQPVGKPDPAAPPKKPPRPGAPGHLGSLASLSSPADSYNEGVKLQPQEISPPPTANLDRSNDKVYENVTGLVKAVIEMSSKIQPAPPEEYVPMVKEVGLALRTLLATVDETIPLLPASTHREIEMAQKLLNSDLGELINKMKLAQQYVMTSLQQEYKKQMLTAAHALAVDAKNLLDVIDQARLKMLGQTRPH
The assay is described as follows: In vitro kinase activity (Kinase-Glo luminescence). Conditions: for FAK inhibition (% at 1 μM): Table 1; for inhibition at 1 µM: read-out: FAK inhibition (% at 1 μM). Format: biochemical. The procedure:
Human recombinant full-length kinases were incubated in kinase buffer containing ATP and substrate (Poly Glu:Tyr) for 4 hours at room temperature with or without the presence of the compounds listed in Table 1 at various concentrations. Remaining ATP in solution was then quantified using the Kinase-Glo-Iuminescence™ kit (Promega).

[4] abbreviates: Homo sapiens, MDA-MB-231, MDA-231 cell proliferation.
Setting [5] is: Homo sapiens, DU-145, 96 hours continuous treatment.

By IC50 is commonly meant the concentration that gives 50% inhibition. Take “2-(4-(2,3,4,6-tetra-O-acetyl-β-D-glucopyranosyl)phenzyl)-1,2-benzisoselenazol-3(2H)-one [Compound 8]”: the IC50 in assay [1] (MDA-231 cell proliferation) was 24.6 µM; in assay [2] (96 hours continuous treatment) it was 33.7 µM. Further, the “FAK inhibition (% at 1 μM)” value in assay [3] is 12%.

“2-(4-(β-D-glucopyranosyl)phenzyl)-1,2-benzisoselenazol-3(2H)-one [Compound 9]”: the IC50 in assay [1] (MDA-231 cell proliferation) was found to be 380 µM; in assay [2] (96 hours continuous treatment), 277 µM. Moreover, in assay [3], the “FAK inhibition (% at 1 μM)” value stood at 4%.

Take `CC(=O)OC[C@H]1O[C@@H](n2[se]c3ccccc3c2=O)[C@H](OC(C)=O)[C@@H](OC(C)=O)[C@H]1OC(C)=O` [Compound 2, 2-(1-deoxy-2,3,4,6-tetra-O-acetyl-β-D-galactopyranosyl)-1,2-benzisoselenazol-3(2H)-one]: the figures for the IC50 in assay [1] (MDA-231 cell proliferation) and in assay [2] (96 hours continuous treatment) were greater than 100 µM and 224 µM, respectively.

With `O=c1c2ccccc2[se]n1[C@@H]1O[C@H](CO)[C@H](O)[C@H](O)[C@H]1O` [Compound 3, 2-(1-deoxy-β-D-galactopyranosyl)-1,2-benzisoselenazol-3(2H)-one], the IC50 amounted to 21 µM in assay [1] (MDA-231 cell proliferation) and 24.3 µM in assay [2] (96 hours continuous treatment).

In the case of `O=c1c2ccccc2[se]n1[C@@H]1O[C@H](CO)[C@@H](O[C@@H]2O[C@H](CO)[C@H](O)[C@H](O)[C@H]2O)[C@H](O)[C@H]1O` [Compound 5, 2-(1-deoxy-β-D-lactosyl)-1,2-benzisoselenazol-3(2H)-one], the IC50 in assay [1] (MDA-231 cell proliferation) was 18.1 µM; in assay [2] (96 hours continuous treatment) it was 24.6 µM.

`CC(=O)OC[C@H]1O[C@@H](NC(=O)Cn2[se]c3ccccc3c2=O)[C@H](OC(C)=O)[C@@H](OC(C)=O)[C@@H]1OC(C)=O` [Compound 6, 2-(3-oxo-1,2-benzisoselenazol-2(3H)-yl)-N-(1-deoxy-2,3,4,6-tetra-O-acetyl-β-D-glucopyranosyl)-acetamide]: the IC50 in assay [1] (MDA-231 cell proliferation) is 275 µM; in assay [2] (96 hours continuous treatment) it was 145 µM.

As to `O=C(Cn1[se]c2ccccc2c1=O)N[C@@H]1O[C@H](CO)[C@@H](O)[C@H](O)[C@H]1O` [Compound 7, 2-(3-oxo-1,2-benzisoselenazol-2(3H)-yl)-N-(1-deoxy-β-D-glucopyranosyl)-acetamide], the IC50 in assay [1] (MDA-231 cell proliferation) turned out to be 52 µM; in assay [2] (96 hours continuous treatment), 40.3 µM. Further, the “FAK inhibition (% at 1 μM)” value in assay [3] is reported as 8%.

As usually defined, the inhibition is the relative decrease from the control value, in per cent. Regarding `O=C(CCCn1[se]c2ccccc2c1=O)N[C@@H]1OC(CO)[C@H](O)C(O)C1O` (some centres unmarked) [Compound 14], the IC50 in assay [1] (setting [4]) turned out to be 54 µM; in assay [2] (setting [5]), 66.4 µM. Besides, the inhibition at 1 µM in assay [3] came out at 13%.

For the compound `CC(=O)OCC1O[C@@H](NC(=O)CCCn2[se]c3ccccc3c2=O)C(OC(C)=O)C(OC(C)=O)[C@@H]1O[C@@H]1OC(COC(C)=O)[C@H](OC(C)=O)C(OC(C)=O)C1OC(C)=O` (some centres unmarked) [Compound 15], the IC50 in assay [2] (setting [5]) came to 34.5 µM.

`O=C(CCCn1[se]c2ccccc2c1=O)N[C@@H]1OC(CO)[C@@H](O[C@@H]2OC(CO)[C@H](O)C(O)C2O)C(O)C1O` (some centres unmarked) [Compound 16] returned an IC50 in assay [2] (setting [5]) of 39.7 µM.

`CC(=O)OCC1O[C@@H](OC(=O)Cn2[se]c3ccccc3c2=O)C(OC(C)=O)C(OC(C)=O)[C@@H]1OC(C)=O` (some centres unmarked) [Compound 17]: the IC50 in assay [1] (setting [4]) worked out at 35 µM; in assay [2] (setting [5]), 30.4 µM. In assay [3], the inhibition at 1 µM turned out to be 51.9%.

Take `O=c1c2ccccc2[se]n1CCO[C@@H]1OC(CO)[C@@H](O)C(O)C1O` (some centres unmarked) [Compound 18]: the IC50 in assay [1] (setting [4]) was greater than 100 µM; in assay [2] (setting [5]), 125 µM.

For `CC(=O)OCC1O[C@@H](n2[se]c3ccccc3c2=O)C(OC(C)=O)C(OC(C)=O)[C@@H]1OC(C)=O` (some centres unmarked) [Compound 19], the figures for the IC50 in assay [1] (setting [4]) and in assay [2] (setting [5]) were 5.2 µM and 11.9 µM, respectively.

`O=C(Cn1[se]c2ccccc2c1=O)N[C@@H]1OC(CO)[C@@H](O)C(O)C1O` (some centres unmarked) [Compound 20]: the IC50 in assay [1] (setting [4]) came to 550 µM; in assay [2] (setting [5]), 395 µM. Further, in assay [3], the inhibition at 1 µM worked out at 15%.

As for `CC(=O)OCC1O[C@@H](NC(=O)c2ccc(-n3[se]c4ccccc4c3=O)cc2)C(OC(C)=O)C(OC(C)=O)[C@@H]1OC(C)=O` (some centres unmarked) [Compound 21], the IC50 in assay [1] (setting [4]) was 5.5 µM. Further, the inhibition at 1 µM in assay [3] was 54%.

As for `O=C(N[C@@H]1OC(CO)[C@@H](O)C(O)C1O)c1ccc(-n2[se]c3ccccc3c2=O)cc1` (some centres unmarked) [Compound 22], the IC50 in assay [1] (setting [4]) amounted to 2.7 µM. Also, the inhibition at 1 µM in assay [3] came to 60%.

With `O=C(N[C@@H]1OC(CO)[C@H](O)C(O)C1O)c1ccc(-n2[se]c3ccccc3c2=O)cc1` (some centres unmarked) [Compound 23], the IC50 in assay [1] (setting [4]) was 12.7 µM. Moreover, the inhibition at 1 µM in assay [3] was 32%.

Take `CC(=O)OCC1O[C@@H](NC(=O)c2ccc(-n3[se]c4ccccc4c3=O)cc2)C(OC(C)=O)C(OC(C)=O)[C@H]1OC(C)=O` (some centres unmarked) [Compound 24]: the IC50 in assay [1] (setting [4]) turned out to be 15.3 µM. Moreover, the inhibition at 1 µM in assay [3] is 72%.

In the case of `CC(=O)OCC1O[C@@H](Oc2ccc(-n3[se]c4ccccc4c3=O)cc2)C(OC(C)=O)C(OC(C)=O)[C@@H]1OC(C)=O` (some centres unmarked) [Compound 25], the IC50 in assay [1] (setting [4]) was found to be 11.4 µM. The inhibition at 1 µM in assay [3] worked out at 65%.

On to `O=c1c2ccccc2[se]n1-c1ccc(O[C@@H]2OC(CO)[C@@H](O)C(O)C2O)cc1` (some centres unmarked) [Compound 26], for which the IC50 in assay [1] (setting [4]) is 4.4 µM. Further, in assay [3], the inhibition at 1 µM was 15%.

Take `CC(=O)OCC1O[C@@H](NC(=O)c2ccc(-n3[se]c4ccccc4c3=O)cc2)C(OC(C)=O)C(OC(C)=O)[C@@H]1O[C@@H]1OC(COC(C)=O)[C@H](OC(C)=O)C(OC(C)=O)C1OC(C)=O` (some centres unmarked) [Compound 27]: the IC50 in assay [1] (setting [4]) came out at 6.8 µM. Also, the inhibition at 1 µM in assay [3] was found to be 12%.

Turning to `CC(=O)OCC1O[C@@H](OC(=O)c2ccc(-n3[se]c4ccccc4c3=O)cc2)C(OC(C)=O)C(OC(C)=O)[C@@H]1OC(C)=O` (some centres unmarked) [Compound 28], in assay [1] (setting [4]), the IC50 turned out to be 4.3 µM. Also, in assay [3], the inhibition at 1 µM worked out at 85%.

Turning to `CC(=O)OCC1O[C@@H](OC(=O)c2ccc(-n3[se]c4ccccc4c3=O)cc2)C(OC(C)=O)C(OC(C)=O)[C@H]1OC(C)=O` (some centres unmarked) [Compound 29], the IC50 in assay [1] (setting [4]) came to 3.7 µM. Also, in assay [3], the inhibition at 1 µM is 11%.

`CC(=O)OCC1O[C@@H](OC(=O)c2ccc(-n3[se]c4ccccc4c3=O)cc2)C(OC(C)=O)C(OC(C)=O)[C@@H]1O[C@@H]1OC(COC(C)=O)[C@H](OC(C)=O)C(OC(C)=O)C1OC(C)=O` (some centres unmarked) [Compound 30]: the IC50 in assay [1] (setting [4]) worked out at 2.2 µM. Also, in assay [3], the inhibition at 1 µM was determined as 94%.

Take `O=C(OCC1O[C@@H](OC(=O)c2ccc(-n3[se]c4ccccc4c3=O)cc2)C(OC(=O)c2ccccc2)C(OC(=O)c2ccccc2)[C@@H]1OC(=O)c1ccccc1)c1ccccc1` (some centres unmarked) [Compound 31]: the IC50 in assay [1] (setting [4]) was 22.9 µM. The inhibition at 1 µM in assay [3] stood at 8%.

Consider “(2,3,4,6-tetra-O-acetyl-β-D-glucopyranosyl)-4-(3-oxo-1,2-benzisoselenazol-2(3H)-yl)benzoate [Compound 10]”, for which the IC50 in assay [1] (MDA-231 cell proliferation) stood at 57.5 µM; in assay [2] (96 hours continuous treatment) it was 30.6 µM.
